Source: paper PMC8708274, “Unveiling the Membrane and Cell Wall Action of Antimicrobial Cyclic Lipopeptides: Modulation of the Spectrum of Activity” (Pharmaceutics, 2021)
Where two headings read alike, the source gives them in different places. Positions of bridges follow the written chain, without caps; N, C: chain ends. Non-standard residues stand in square brackets, D forms with d. Residues, ends and D or L forms follow the SMILES beside them. No end group written: not given here. *: point of attachment. Lauroyl = CCCCCCCCCCCC(=O)*; Decanoyl = CCCCCCCCCC(=O)*; dNle = CCCC[C@@H](N)C(=O)O; X1 = CC[C@H](C)CCCCC(=O)*; Nle = CCCC[C@H](N)C(=O)O; Dab = NCC[C@H](N)C(=O)O

Legend:
[1] = tested on: Escherichia coli ATTC 25922; assay type: cell-based
Experimental: (§1) The minimal peptide concentration required to prevent the growth of a given test organism was determined after incubation overnight at 37 °C and was defined as the MIC. Activity was determined in representative bacteria, Escherichia coli ATTC 25922, Pseudomonas aeruginosa ATTC 27853, and Staphylococcus aureus ATTC 25923, using the broth microdilution method. Serial-two-fold dilutions of peptide (from 0.06 to 32 μg/mL) were performed in Mueller–Hinton broth (MHB) culture medium in sterile 96-well polypropylene microtiter plates inoculated with a final concentration of 5 × 10^5 CFU·mL^−1 of bacteria in each well. Bacteria were in the pre-exponential phase. Each determination was done by triplicate. In order to be considered acceptable, the three MIC results have to differ in only in one well, and the result was always given as the higher of the three. Drug-free and microorganism-free wells were used as positive and negative controls, respectively. Bacterial growth was visually determined on the basis of turbidity.

[2] = tested on: Pseudomonas aeruginosa ATTC 27853; assay type: cell-based
Experimental: as §1

[3] = tested on: Staphylococcus aureus ATTC 25923; assay type: cell-based
Experimental: as §1

[4] = tested on: fresh rabbit erythrocytes; assay: Hemolysis assay; assay type: cell-based; conditions: 335 μM lipopeptide, 1 h at 37 °C, 10 mM Tris 80 mM NaCl pH 7.4, absorbance 540 nm, average of three independent experiments
Experimental: Hemolytic activity was evaluated on fresh rabbit erythrocytes collected in EDTA collection tubes, as previously described. Briefly, an erythrocite suspension in buffer (10 mM Tris, 80 mM NaCl pH 7.4) was obtained by centrifugation (three times, 10 min at 4000 rpm) and adjusted at an optical density of 1 at 540 nm. Aliquots of 200 µL were incubated for 1 h at 37 °C with the different lipopeptides in 96-well polypropylene microtiter plates and centrifuged (15 min, 5000 rpm). Lipopetide-induced hemolysis was determined by measuring the absorbance at 540 nm of released hemoglobin (Asample) in the supernatant. Each determination was done by triplicate, and as negative and positive controls, erythrocytes in buffer (A0%) and in distilled water (A100%) were employed, respectively. Hemolysis was calculated according the following equation: % hemolysis = 100 · (Asample − A0%/A100% − A0%).

[5] = Kinetics of insertion into monolayers; assay type: binding, Salmonella enterica serotype Minnesota Re 595; conditions: initial pressure 32 mN·m^−1, peptide 0.48 μM, 25 min after injection, 10 mM Tris pH 7.4, 25 °C, average of three independent experiments (error < 10%)
Experimental: (§2) Monolayer studies were performed at room temperature (25 °C) on a monolayer system (NIMA Technology, Coventry, UK) by using a cylindrical PTFE (Teflon®, Wilmington, DE, USA) trough (5 cm diameter) containing a continuously stirred aqueous phase (12 mL, 10 mM Tris pH 7.4) and a Wilhelmy platinum plate connected to an electrobalance. The system was enclosed in a Plexiglass box to reduce surface contamination, and before each run, the plate and the trough were cleaned with hot water at >70 °C to avoid carryover of lipid or peptide. Monolayers of POPG, POPE/POPG (6:4), POPC, or LPS were formed by applying small drops of the lipid stock solutions in CHCl3 on the aqueous subphase with a microsyringe (Hamilton Co., Reno, NV, USA) to achieve a surface pressure of 32 mN·m^−1. After 10 min, allowing for solvent evaporation, a known aliquot of peptide was added without disturbance of the monolayer via an inlet port, and the surface pressure was continuously monitored.

[6] = Kinetics of insertion into monolayers; assay type: binding; conditions: 25 min after injection, 10 mM Tris pH 7.4, 25 °C, average of three independent experiments (error < 10%); for Increase in surface pressure (Δπ), POPE/POPG: POPE/POPG 6:4, initial pressure 32 mN·m^−1, peptide 0.48 μM; for Increase in surface pressure (Δπ), POPC / Increase in surface pressure (Δπ), POPG: initial pressure 32 mN·m^−1, peptide 0.48 μM
Experimental: as §2

[7] = tested on: P. aeruginosa; assay: Transmission electron microscopy of treated bacteria; assay type: cell-based, Pseudomonas aeruginosa; conditions: 1xMIC, 2 h, room temperature, tryptone water
Experimental: (§3) Then, 500 µL of this culture were added to 50 mL of tryptone water for a concentration of ≈10^8 bacteria·mL^−1. Aliquots of 10 mL were incubated with the lipopeptide at the desired concentration for 2 h at room temperature, and bacterial cells were collected by centrifugation (12,857 g, 20 min). Samples were fixed with 2.5% glutaraldehyde in phosphate buffer for 2 h at 4 °C, washed with the same buffer, and post fixed with 1% osmium tetroxide in buffer containing 0.8% potassium ferricyanide at 4 °C. Then, the samples were dehydrated for 1 h in acetone, infiltrated in a graded series of Epon resin (Ted pella, Inc., Redding, CA, USA) during 2 days, and finally embedded in fresh Epon resin and polymerized at 60 °C during 48 h. Ultrathin sections were obtained using a Leica Ultracut UCT ultramicrotome (Leica, Vienna, Austria) and mounted on Formvar-coated copper grids. Sections were stained with 2% aqueous uranyl acetate and lead citrate and examined in a JEM-1010 electron microscope (Jeol, Tokyo, Japan).

[8] = tested on: E. coli; assay: as above; assay type: cell-based, Escherichia coli; conditions: 1xMIC, 2 h, room temperature, tryptone water
Experimental: as §3

[9] = tested on: S. aureus; assay: as above; assay type: cell-based, Staphylococcus aureus; conditions: 1xMIC, 120 min, tryptone water
Experimental: as §3

[10] = tested on: Escherichia coli ATTC 25922; conditions: cited from earlier work
Experimental: Table 1 Sequences and antimicrobial activities of the synthesized peptides determined as minimal inhibitory concentration (MIC) calculated for different bacteria strains. | column: MIC/µg mL^−1 (µM) / EC ^1 || Figure 3 Comparative TEM micrographs of P. aeruginosa (left) and E. coli (right). Untreated bacteria (a,b); bacteria treated with polymyxin analogues at 1xMIC: P. aeruginosa with spB-3 (4 μg·mL^−1) (c), or with of spE-10 (1 μg·mL^−1) (e); E. coli treated with spB-3 (2 μg·mL^−1) (d) or spE-10 (8 μg·mL^−1) (f). Lipopeptides cause the alteration of the membranes, with blebs protruding, loss of membrane, clear cytoplasmic zones, and even ghost cells. Similar results are obtained with natural PxB ((g,h), this last one is adapted from (Rabanal et al. Sci. Rep. 2015).

[11] = tested on: Pseudomonas aeruginosa ATTC 27853; conditions: cited from earlier work
Experimental: C6 analogues are devoid of antibacterial effect both against Gram-positive and Gram-negative bacteria, with MICs higher than 32 μg·mL^−1. C8 analogues show some activity, especially against P. aeruginosa but not on Gram-positive S. aureus. […] For example, MIC of 4 μg·mL^−1 and 2 μg·mL^−1 against P. aeruginosa for spB-3 and spE-3 respectively are obtained, where ... || Figure 3 Comparative TEM micrographs of P. aeruginosa (left) and E. coli (right). Untreated bacteria (a,b); bacteria treated with polymyxin analogues at 1xMIC: P. aeruginosa with spB-3 (4 μg·mL^−1) (c), or with of spE-10 (1 μg·mL^−1) (e); E. coli treated with spB-3 (2 μg·mL^−1) (d) or spE-10 (8 μg·mL^−1) (f). Lipopeptides cause the alteration of the membranes, with blebs protruding, loss of membrane, clear cytoplasmic zones, and even ghost cells. Similar results are obtained with natural PxB ((g,h), this last one is adapted from (Rabanal et al. Sci. Rep. 2015).

[12] = tested on: Staphylococcus aureus ATTC 25923; conditions: cited from earlier work
Experimental: C6 analogues are devoid of antibacterial effect both against Gram-positive and Gram-negative bacteria, with MICs higher than 32 μg·mL^−1. C8 analogues show some activity, especially against P. aeruginosa but not on Gram-positive S. aureus. […] For example, MIC of 4 μg·mL^−1 and 2 μg·mL^−1 against P. aeruginosa for spB-3 and spE-3 respectively are obtained, where ... || Since some of the polymyxin analogues also have good activities against S. aureus, the effects on the cell morphology of this Gram-positive bacteria were determined.

[13] = broth microdilution, MHB, 5 × 10^5 CFU/mL, overnight 37 °C, triplicate, higher of the three
[14] = value in brackets, broth microdilution, MHB, overnight 37 °C, triplicate
[15] = taken from the literature (analogues #37, #38, #39)
[16] = value in brackets, taken from the literature

Molecule	MIC EC [1, 13]	MIC PA [2, 13]	MIC PA [2, 14]	MIC SA [3, 13]	MIC SA [3, 14]	Increase in surface pressure (Δπ), LPS [5]	Increase in surface pressure (Δπ), POPE/POPG [6]	Increase in surface pressure (Δπ), POPC [6]	Increase in surface pressure (Δπ), POPG [6]	MIC EC ([1]; ATTC 25922)	ultrastructural effect on S. aureus (TEM) [9]	MIC EC [10, 15]	MIC EC [10, 16]	MIC PA [11, 15]	MIC PA [11, 16]	MIC SA [12, 15]	MIC SA [12, 16]	also measured
CC[C@H](C)CCCCC(=O)N[C@@H](CCN)C(=O)N[C@H](C(=O)N[C@@H](CCN)C(=O)N[C@H]1CCNC(=O)[C@H]([C@@H](C)O)NC(=O)[C@H](CCN)NC(=O)[C@H](CCN)NC(=O)[C@H](CC(C)C)NC(=O)[C@@H](Cc2ccccc2)NC(=O)[C@H](CCN)NC1=O)[C@@H](C)O [PxB, Polymyxin B, reference compound] (X1-[Dab]T[Dab][Dab][Dab][dF]L[Dab][Dab]T; lactam 4-C)	1 mg/L	0.5 mg/L	0.42 µM	> 32 mg/L	> 27 µM	11.4 mN·m^−1	7.2 mN·m^−1	1.4 mN·m^−1	5.9 mN·m^−1									MIC EC [1, 14]: 0.83 µM; hemolysis [4]: 18%
CCCCCCCCCC(=O)N[C@@H](CCN)C(=O)N[C@H](C(=O)N[C@@H](CCN)C(=O)N[C@H]1CSSC[C@H](C(N)=O)NC(=O)[C@H](CCN)NC(=O)[C@H](CCN)NC(=O)[C@H](CCCC)NC(=O)[C@@H](CCCC)NC(=O)[C@H](CCN)NC1=O)[C@@H](C)O [spE-7] (Decanoyl-[Dab]T[Dab]C[Dab][dNle][Nle][Dab][Dab][dC]-NH2; disulfide 4-10)	2 mg/L	2 mg/L	1.7 µM	8 mg/L	6.7 µM	14.2 mN·m^−1	6.8 mN·m^−1	1.4 mN·m^−1	8.2 mN·m^−1	1.7 µM								
CCCCCCCCCCCC(=O)N[C@@H](CCN)C(=O)N[C@H](C(=O)N[C@@H](CCN)C(=O)N[C@H]1CSSC[C@H](C(N)=O)NC(=O)[C@H](CCN)NC(=O)[C@H](CCN)NC(=O)[C@H](CCCC)NC(=O)[C@@H](CCCC)NC(=O)[C@H](CCN)NC1=O)[C@@H](C)O [spE-8] (Lauroyl-[Dab]T[Dab]C[Dab][dNle][Nle][Dab][Dab][dC]-NH2; disulfide 4-10)	4 mg/L	4 mg/L		4 mg/L		12.5 mN·m^−1	9.8 mN·m^−1	1.3 mN·m^−1	7.4 mN·m^−1	3.3 µM								MIC PA ([2]; ATTC 27853): 3.3 µM; MIC SA ([3]; ATTC 25923): 3.3 µM
Decanoyl-[Dab]T[Dab]C[Dab]FL[Dab][Dab]C (disulfide 4-10 (inferred)) [spB-3, the C10 analogue of PxB]						11.0 mN·m^−1	6.0 mN·m^−1	2.0 mN·m^−1	6.2 mN·m^−1		formation of spherical mesosome-like intracellular structures and membranous inclusion bodies together with deformation of the cell envelope	2 mg/L	1.6 µM	4 mg/L	3.2 µM	8 mg/L	6.5 µM	ultrastructural effect on P. aeruginosa (TEM) [7]: formation of blebs that protrude from the outer membrane; ultrastructural effect on E. coli (TEM) [8]: extensive bleb formation
Decanoyl-[Dab]T[Dab]C[Dab]F[Nle][Dab][Dab]C (disulfide 4-10 (inferred)) [spB-7, Series II-PxB analogue, decanoyl, Nle in position 7]						9.3 mN·m^−1	6.5 mN·m^−1	2.1 mN·m^−1	4.2 mN·m^−1			2 mg/L	1.6 µM	1 mg/L	0.81 µM	4 mg/L	3.2 µM	
Lauroyl-[Dab]T[Dab]C[Dab]F[Nle][Dab][Dab]C (disulfide 4-10 (inferred)) [spB-8, the C12/Nle7 derivative]						11.2 mN·m^−1	6.2 mN·m^−1	1.7 mN·m^−1	3.8 mN·m^−1		Even more disruptive effects	4 mg/L	3.2 µM	1 mg/L	0.79 µM	2 mg/L	1.58 µM	
